Measured values published in PubChem BioAssay (NCI).
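96-well plates; 48 h exposure; 5 concentrations. Endpoints by linear interpolation between flanking doses. Not reached: highest tested concentration assigned. Here, GI50 denotes the concentration required for 50% inhibition of growth. TGI marks complete inhibition of growth.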

Assays:
Assay in all cases: NCI anticancer screen, dose series, 48 h
OVCAR-4 ovarian = system: OVCAR-4 ovarian
COLO 205 colon = system: COLO 205 colon
NCI/ADR-RES ovarian = system: NCI/ADR-RES ovarian
EKVX NSCLC = system: EKVX NSCLC
MCF7 breast = system: MCF7 breast
ACHN renal = system: ACHN renal
SF-539 CNS = system: SF-539 CNS
RXF 393 renal = system: RXF 393 renal
HCT-116 colon = system: HCT-116 colon
OVCAR-5 ovarian = system: OVCAR-5 ovarian
MDA-MB-435 = system: MDA-MB-435
MDA-MB-231 breast = system: MDA-MB-231 breast
HT29 colon = system: HT29 colon
BT-549 breast = system: BT-549 breast
PC-3 prostate = system: PC-3 prostate
HS 578T breast = system: HS 578T breast
IGROV1 ovarian = system: IGROV1 ovarian
UACC-62 melanoma = system: UACC-62 melanoma
SNB-75 CNS = system: SNB-75 CNS
MALME-3M melanoma = system: MALME-3M melanoma
U251 CNS = system: U251 CNS
OVCAR-3 ovarian = system: OVCAR-3 ovarian
OVCAR-8 ovarian = system: OVCAR-8 ovarian
KM12 colon = system: KM12 colon
HOP-92 NSCLC = system: HOP-92 NSCLC
NCI-H460 lung = system: NCI-H460 lung
NCI-H23 lung = system: NCI-H23 lung
SK-OV-3 ovarian = system: SK-OV-3 ovarian
MOLT-4 leukemia = system: MOLT-4 leukemia

SMILES: FC(F)(F)c1cccc(-c2nn3ncccc3c2-c2ccnc(Nc3ccc4c(c3)OCCO4)n2)c1
- GI50 (OVCAR-4 ovarian): 10.3 µM
- TGI (OVCAR-4 ovarian): > 25 µM
- GI50 (COLO 205 colon): 14.1 µM
- TGI (COLO 205 colon): > 25 µM
- GI50 (NCI/ADR-RES ovarian): 8.96 µM
- TGI (NCI/ADR-RES ovarian): > 25 µM
- GI50 (EKVX NSCLC): 13.9 µM
- TGI (EKVX NSCLC): > 25 µM
- GI50 (MCF7 breast): 14.4 µM
- TGI (MCF7 breast): > 25 µM
- GI50 (ACHN renal): 6.42 µM
- TGI (ACHN renal): > 25 µM
- GI50 (SF-539 CNS): > 25 µM
- TGI (SF-539 CNS): > 25 µM
- GI50 (RXF 393 renal): 6.83 µM
- TGI (RXF 393 renal): > 25 µM
- GI50 (HCT-116 colon): 9.75 µM
- TGI (HCT-116 colon): > 25 µM
- GI50 (OVCAR-5 ovarian): > 25 µM
- TGI (OVCAR-5 ovarian): > 25 µM
- GI50 (MDA-MB-435): 13.1 µM
- TGI (MDA-MB-435): > 25 µM
- GI50 (MDA-MB-231 breast): 9.02 µM
- TGI (MDA-MB-231 breast): > 25 µM
- GI50 (HT29 colon): 7.32 µM
- TGI (HT29 colon): > 25 µM
- GI50 (BT-549 breast): 16.4 µM
- TGI (BT-549 breast): > 25 µM
- GI50 (PC-3 prostate): 10.5 µM
- TGI (PC-3 prostate): > 25 µM
- GI50 (HS 578T breast): 16.4 µM
- TGI (HS 578T breast): > 25 µM
- GI50 (IGROV1 ovarian): 5.38 µM
- TGI (IGROV1 ovarian): > 22.2 µM
- GI50 (UACC-62 melanoma): 15 µM
- TGI (UACC-62 melanoma): > 25 µM
- GI50 (SNB-75 CNS): > 18.6 µM
- TGI (SNB-75 CNS): > 25 µM
- GI50 (MALME-3M melanoma): > 25 µM
- TGI (MALME-3M melanoma): > 25 µM
- GI50 (U251 CNS): 19.5 µM
- TGI (U251 CNS): > 25 µM
- GI50 (OVCAR-3 ovarian): 13.7 µM
- TGI (OVCAR-3 ovarian): > 25 µM
- GI50 (OVCAR-8 ovarian): 10.6 µM
- TGI (OVCAR-8 ovarian): > 25 µM
- GI50 (KM12 colon): 14.1 µM
- TGI (KM12 colon): > 25 µM
- GI50 (HOP-92 NSCLC): 5.52 µM
- TGI (HOP-92 NSCLC): > 25 µM
- GI50 (NCI-H460 lung): 11.1 µM
- TGI (NCI-H460 lung): > 25 µM
- GI50 (NCI-H23 lung): 14.8 µM
- TGI (NCI-H23 lung): > 25 µM
- GI50 (SK-OV-3 ovarian): 8.99 µM
- TGI (SK-OV-3 ovarian): > 25 µM
- GI50 (MOLT-4 leukemia): 11.8 µM
- TGI (MOLT-4 leukemia): > 25 µM
